# Laboratory results reported in PMC10073126, “Levosimendan inhibits disulfide tau oligomerization and ameliorates tau pathology in Tau^P301L-BiFC mice” (Experimental & Molecular Medicine, 2023).
# Columns and labels:
# tau [1] = assay: Tau immunoblot of primary hippocampal neuron lysates; format: cell-based, rat; conditions: 3 μM, nonreducing SDS-PAGE, primary neurons, tauK18^P301L; control 1.8 ± 0.3-fold
# Procedure: Band intensity was quantified using ImageJ software (NIH). All data were normalized to β-actin.
# (§1) Primary hippocampal neurons were isolated from Day 18 embryonic Sprague‒Dawley rat brains as described previously. The neurons were seeded at a density of 3.5 × 10^5 cells per well on a poly-D-lysine-coated 6-well plate and maintained in neurobasal medium at 37 °C in a humidified atmosphere of 5% CO2. The neurobasal medium contained 2% B27 supplement, 0.5 mM GlutaMAX, 100 units/mL penicillin, and 100 μg/mL streptomycin. Every 3 days, 50% of the medium was replaced with fresh neurobasal medium. At DIV10, neurons were incubated with MB, LMTM (3 µM), or levosimendan (10 µM) in the presence of tauK18^P301L (10 µg/mL) for 48 h.
# tau [2] = target: T1, tau (Homo sapiens, UniProt P10636); assay: Tau immunoblot of tau-BiFC cell lysates (reducing and nonreducing SDS-PAGE); conditions: 5 μM, tauK18^P301L-activated tau-BiFC cells
# Procedure: For reducing SDS‒PAGE analysis, cell or brain lysates were mixed with 4x Laemmli buffer containing 10% β-mercaptoethanol (BME) and boiled at 97 °C for 5 min. For nonreducing SDS‒PAGE analysis, cell or brain lysates were mixed with 4x Laemmli buffer without BME. For immunoblot analysis, 10 μg of each lysate was separated on a 10% SDS–PAGE gel and transferred to a PVDF membrane. The levels of total tau and phosphorylated tau were detected by anti-tau antibodies against 2B11 (IBL), Tau5 (Abcam), pSer199 (Abcam), pSer396 (Abcam), and pThr205 (Abcam). […] Band intensity was quantified using ImageJ software (NIH). All data were normalized to β-actin.
# [3] = Cell viability of tau-BiFC cells (number of nuclei); format: cell-based, human; conditions: human, HEK293 Tau-BiFC cells, 48 h of treatment
# Procedure: HEK293 Tau-BiFC cells were maintained in Dulbecco’s modified Eagle medium (DMEM) supplemented with 10% fetal bovine serum (FBS), 100 units/mL penicillin, 100 µg/mL streptomycin and 100 µg/mL Geneticin (G418) in a humidified atmosphere containing 5% CO2 at 37 °C. Tau-BiFC cells were activated by treatment with FK (30 μM) or tauK18^P301L (5 μg/mL).
# For screening of FDA-approved & Passed Phase I Drug Library, tau-BiFC cells were plated on µ-clear 384-well plates. The next day, the cells were cotreated with forskolin and 1,018 library compounds at a concentration of 10 µM. MB and LMTM (3 µM) were used as positive controls. After 46 h, nuclei were counterstained with Hoechst (Invitrogen). BiFC (λex = 460–490 nm and λem = 500–550 nm) and Hoechst (λex = 355–385 nm and λem = 430–500 nm) fluorescence images were acquired automatically by using Operetta® (PerkinElmer). BiFC fluorescence intensity and the number of nuclei were quantified using Harmony 3.1 software (PerkinElmer). Integrated tau-BiFC intensity represents the area of selected cell X mean fluorescence intensity. The means and standard deviations (S.D.) of BiFC fluorescence intensities and the number of nuclei were plotted using GraphPad Prism.
# Tau-BiFC cells = assay: Flow cytometry analysis of tau-BiFC cells; format: cell-based, human; conditions: drug 5 μM with tauK18^P301L
# Procedure: After 24 h, BiFC cells were collected and subjected to flow cytometry analysis using a BD FACSLyric^TM cytometer (BD Biosciences). A total of 50,000 events were acquired per sample. All samples were gated using the same gating tree and gate positions: side scatter area (SSC-A) vs. forward scatter area (FSC-A) for viable and singlet cell populations. BiFC fluorescence was excited by a 488 nm wave laser and collected through a 527/32 bandpass filter.
# tauK18 [4] = target: T2, tauK18 (Homo sapiens, UniProt P10636); assay: TauK18 oligomerization assay in vitro (SDS-PAGE); format: biochemical; conditions: 100 μM, 5 h, nonreducing SDS-PAGE; DMSO control 50 ± 1.1%
# T2 construct: under in vitro conditions using a purified tauK18 fragment; 6xHis; made in house; host or cells: E. coli BL21 (DE3)
# Procedure: To induce tau oligomerization, tauK18 (0.5 mg/mL dissolved in PBS, pH 7.4) was incubated with each drug in the presence of DTT (100 μM) and heparin (0.1 mg/mL) at RT for 5 h with vigorous shaking. Then, tau oligomers were separated on 4–20% SDS‒PAGE gels under reducing and nonreducing conditions and visualized by Coomassie blue staining.
# [5] = system: primary hippocampal neurons; assay: NeuO staining, number of neurons and neurite lengths; format: cell-based; conditions: 3 μM, tauK18^P301L, 48 h
# Procedure: as §1
# At DIV10, neurons grown on a 96-well plate were treated with MB, LMTM (3 µM), or levosimendan (10 µM) followed by tauK18^P301L activation. After 48 h, the neurons were stained with NueO (50 nM), a neuron-selective probe. NeuO fluorescence (λex = 460–490 nm and λem = 518–580 nm) images were acquired by using Operetta® (PerkinElmer). The number of neurons and total lengths of neurites were quantified by Harmony 3.1 software (PerkinElmer). Error bars represent the standard deviations (S.D.) of four replicate experiments.
# tauK18 [6] = target: T2, tauK18; assay: In vitro tau aggregation assay (thioflavin S); format: biochemical; conditions: heparin-induced, 5 days
# Procedure: To evaluate the inhibitory effect of drugs on tau aggregation, tauK18 protein (0.5 mg/mL) was incubated with each drug at various concentrations in the presence of DTT (100 μM) and heparin (0.1 mg/mL) at 37 °C for 5 days with vigorous shaking (220 rpm). For the tau disaggregation assay, the preformed aggregation mixture of tauK18 was incubated with each drug at 37 °C for 4 days with vigorous shaking (220 rpm). On the final day of incubation, the level of β-sheet aggregates was evaluated by thioflavin S (ThS) assay. For the ThS assay, 5 μL of each mixture was transferred to a black 384-well plate with 45 μL of PBS containing 10 μM ThS. ThS fluorescence (λex = 430 nm, and λem = 500 nm) was measured by using a Flexstation2 spectrophotometer (Molecular Devices).
# tau [7] = target: T1, tau; assay: Tau-BiFC response in tau-BiFC cells (high-content imaging); format: cell-based; parameters: expressed in transfected cells; host or cells: HEK293 Tau-BiFC cells (G418-selected); conditions: 100 μM, 48 h, tauK18^P301L
# tau cysteines = target: T3, tau cysteines (Homo sapiens, UniProt P10636); assay: Covalent binding to tau (14C autoradiography, MALDI-TOF of R1-R4 peptides); conditions: 720 μM with tauK18 72 μM, 2 h, RT
# T3 construct: 6xHis; made in house; host or cells: E. coli BL21 (DE3)
# Procedure: TauK18 (1 mg/mL, 72 μM) was incubated with ^14C-levosimendan (720 μM) in PBS containing 5% DMSO at RT for 2 h. Then, the mixture was separated on a 15% SDS–PAGE gel under nonreducing conditions and stained with Coomassie blue. For autoradiography, the SDS–PAGE gel was transferred to a PVDF membrane and scanned by Typhoon FLA 7000 IP (GE Healthcare).
# Each repeat domain (R1, R2, R3, R4, R2-C291S or R3-C322S, 150 μM) was incubated with levosimendan (molar ratio 1:10 of a tau repeat domain: levosimendan) at RT for 37 h. The samples were mixed with matrix solution (10 mg mL^−1 sinapinic acid in 0.1% (v/v) trifluoroacetic acid/CAN) at a ratio of 1:1. The mixtures were directly spotted onto the MALDI target and dried. Mass spectra were acquired in reflection/linear positive ion mode in the m/z range of 2000–100,000 using an Ultraflex III TOF/TOF mass spectrometer controlled by Flex Control 3.0 (Bruker Daltonics). The default operating conditions were as follows: ion source 1, 25.0 kV; ion source 2, 23.0 kV; lens voltage, 6.0 kV; laser repetition rate = 100 Hz. All spectra were generated automatically in the instrument software and based on averaging 1000 shots from 10 nonoverlapping positions (100 shots/position).
# tauK18 fragment = assay: non-reducing SDS-PAGE with Coomassie staining (disulfide-linked oligomers); tauK18 0.5 mg/mL in PBS pH 7.4 with DTT (100 uM) and heparin (0.1 mg/mL), RT, 5 h, shaking; 4-20% gel; DMSO control, MB, LMTM or levosimendan (10, 30, 100 uM)
# T2 sequence (P10636 561-685 limits assumed): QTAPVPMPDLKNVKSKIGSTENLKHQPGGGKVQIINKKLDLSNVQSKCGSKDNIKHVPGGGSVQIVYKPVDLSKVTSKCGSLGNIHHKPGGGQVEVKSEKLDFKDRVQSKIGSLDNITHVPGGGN
# T1 sequence (P10636 1-441 isoform P10636-8): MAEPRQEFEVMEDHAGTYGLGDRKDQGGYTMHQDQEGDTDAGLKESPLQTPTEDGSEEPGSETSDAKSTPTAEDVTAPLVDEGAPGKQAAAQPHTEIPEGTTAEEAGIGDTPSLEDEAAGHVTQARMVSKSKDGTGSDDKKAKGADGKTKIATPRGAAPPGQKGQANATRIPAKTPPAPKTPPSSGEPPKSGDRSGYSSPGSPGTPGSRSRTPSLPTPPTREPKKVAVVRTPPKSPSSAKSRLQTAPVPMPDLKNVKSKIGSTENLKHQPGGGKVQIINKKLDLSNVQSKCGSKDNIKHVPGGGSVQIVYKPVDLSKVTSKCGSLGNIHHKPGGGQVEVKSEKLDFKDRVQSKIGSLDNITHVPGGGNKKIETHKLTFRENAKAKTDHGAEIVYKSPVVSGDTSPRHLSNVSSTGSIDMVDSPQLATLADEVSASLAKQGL
# T1 sequence (P10636 1-441 isoform P10636-8): as above
# T3 sequence (P10636 561-689 limits assumed): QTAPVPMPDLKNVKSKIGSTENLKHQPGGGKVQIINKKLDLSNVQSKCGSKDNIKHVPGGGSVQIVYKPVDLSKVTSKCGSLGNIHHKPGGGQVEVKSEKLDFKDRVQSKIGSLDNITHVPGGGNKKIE
molecule,measurement,setting,value
"CN(C)c1ccc2nc3ccc(=[N+](C)C)cc-3sc2c1 [MB, methylene blue]",Level of disulfide-linked tau oligomers compared to basal,tau [1],2.3 ± 0.5 fold
same,Level of disulfide-linked tau oligomers compared to basal,"tau [2]; nonreducing SDS-PAGE, control 2.4 ± 0.4-fold",1.6 ± 0.3 fold
same,Level of pS199-positive monomers compared to basal,tau [2]; reducing gel,0.2 ± 0.1 fold
same,Level of pS199-positive oligomers compared to basal,tau [2]; reducing gel,0.4 ± 0.2 fold
same,Level of pT205-positive monomers compared to basal,tau [2]; reducing gel,0.1 ± 0.1 fold
same,Level of pT205-positive oligomers compared to basal,tau [2]; reducing gel,0.7 ± 0.3 fold
same,GI50 at 48 h,[3]; Tau-BiFC^ON by forskolin (30 μM),6.2 ± 0.4 µM
same,GI50 at 48 h,[3]; Tau-BiFC^ON by tauK18^P301L (5 μg/mL),7.1 ± 0.3 µM
same,P1: intact cell population out of total cells,Tau-BiFC cells; 24 h,13.7%
same,Median BiFC fluorescence intensity of BiFC-responding cells,"Tau-BiFC cells; BiFC^ON control […] ± 62, basal 332 ± 110",648 ± 49
same,Level of disulfide-linked tau oligomers (of total tau),tauK18 [4],77.6 ± 2.0%
same,Number of NeuO-stained live neurons,"[5]; basal 1925 ± 66, control 943 ± 30",986 ± 150 neurons
same,Neurite length,[5]; control 142.8 ± 17.8 μm,did not show a significant effect on neuronal integrity
C[C@@H]1CC(=O)NN=C1c1ccc(N)cc1 [OR-1855],Inhibition of tau aggregation in vitro (ThS response),tauK18 [6],did not inhibit tau aggregation in vitro
same,Inhibition of tau-BiFC fluorescence increase,tau [7],did not inhibit the tau-BiFC fluorescence increase
CC(=O)Nc1ccc(C2=NNC(=O)C[C@H]2C)cc1 [OR-1896],Inhibition of tau aggregation in vitro (ThS response),tauK18 [6],did not inhibit tau aggregation in vitro
same,Inhibition of tau-BiFC fluorescence increase,tau [7],did not inhibit the tau-BiFC fluorescence increase
CC1CC(=O)NN=C1c1ccc(NN=C(C#N)[14C]#N)cc1 (stereo not shown) [^14C-levosimendan],Covalent labeling of tau on nonreducing SDS-PAGE (14C-radiography),tau cysteines,covalent attachment to tau
tauK18 fragment (domain or fragment),percent of total tau as disulfide-linked oligomers (DMSO control),tauK18 fragment,50%
